Columns and labels:
[1] = test system: panel of 79 target receptors; experiment: CEREP selectivity screen, panel of 79 target receptors; type: binding; conditions: 10 µM; all targets except A2A, A3, MT3, P2Y, 5HT2C
Description: SB-334867 was evaluated in a selectivity screen performed at CEREP (Paris, France). The screen consisted of binding assays on a panel of 79 target receptors. The specific binding (SB) of a radioligand to each target receptor was defined as the difference between the total binding and the nonspecific binding determined in the presence of a cold competitor in excess. […] Details on the CEREP screen are available from www.cerep.fr.
Among the 79 receptors tested, 30 were peptide receptors. […] The selectivity profiles of almorexant and EMPA [37] have been reported previously.

rHCRTR1 = target: T1, rHCRTR1 (Rattus norvegicus, UniProt P56718); experiment: Inhibition of [^3H]almorexant binding to HEK293-rHCRTR1 membranes
T1 construct: expressed in transfected cells; host or cells: HEK293 (transient transfection, pCI-Neo vector), membrane preparation
T1 sequence (P56718 1-416): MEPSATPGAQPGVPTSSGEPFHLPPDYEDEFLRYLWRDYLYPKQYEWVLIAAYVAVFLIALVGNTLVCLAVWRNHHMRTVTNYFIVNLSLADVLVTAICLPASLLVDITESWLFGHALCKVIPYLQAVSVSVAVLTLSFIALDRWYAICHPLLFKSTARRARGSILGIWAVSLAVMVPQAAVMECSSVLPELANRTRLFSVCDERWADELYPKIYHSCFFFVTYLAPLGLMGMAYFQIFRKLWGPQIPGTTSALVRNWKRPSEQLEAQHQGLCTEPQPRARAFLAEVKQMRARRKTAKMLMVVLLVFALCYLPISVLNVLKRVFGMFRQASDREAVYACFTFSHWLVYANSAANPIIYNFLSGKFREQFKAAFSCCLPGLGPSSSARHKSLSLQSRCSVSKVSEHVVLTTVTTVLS
Excerpt: The rat cDNAs encoding HCRTR1 (Accession No. P56718) and HCRTR2 (Accession No. P56719) were subcloned into pCI-Neo expression vectors (Promega, Madison, WI) and used to transfect HEK293 cells (acquired commercially from ATCC-LGC, Molsheim, France) as previously described.

HCRTR2 = target: T2, HCRTR2 (Rattus norvegicus, UniProt P56719); experiment: HCRTR2 occupancy, [^3H]EMPA autoradiography of brain sections; type: in vivo; conditions: 30 mg/kg ip; for receptor occupancy at 30 mg/kg: rat, ip, 12 h
T2 construct: from tissue; host or cells: coronal brain sections of male Sprague-Dawley rats (TMN, DRN, CC, CA3, RSC, Pn)
T2 sequence (P56719 1-460): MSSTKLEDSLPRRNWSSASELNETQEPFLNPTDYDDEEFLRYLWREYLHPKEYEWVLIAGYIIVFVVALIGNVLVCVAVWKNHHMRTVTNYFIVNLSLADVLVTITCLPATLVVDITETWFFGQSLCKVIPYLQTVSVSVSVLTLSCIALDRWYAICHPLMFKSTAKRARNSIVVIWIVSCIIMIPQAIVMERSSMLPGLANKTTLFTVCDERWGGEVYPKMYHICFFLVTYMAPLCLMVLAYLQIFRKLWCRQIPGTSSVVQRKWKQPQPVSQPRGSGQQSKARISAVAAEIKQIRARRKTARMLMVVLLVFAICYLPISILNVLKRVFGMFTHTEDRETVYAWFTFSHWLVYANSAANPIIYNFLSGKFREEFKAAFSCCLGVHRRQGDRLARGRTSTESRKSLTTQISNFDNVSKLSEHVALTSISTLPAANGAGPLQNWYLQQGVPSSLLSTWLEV

Row | SMILES | activity at all other targets tested [1] [%] | Ki (rHCRTR1) [nM] | HCRTR2 RO (HCRTR2; all 6 structures, within 30 min, maximal at 2 h and 4 h) [%] | receptor occupancy at 30 mg/kg (HCRTR2; CA3) [%] | receptor occupancy at 30 mg/kg (HCRTR2; CC) [%] | receptor occupancy at 30 mg/kg (HCRTR2; DRN) [%] | receptor occupancy at 30 mg/kg (HCRTR2; Pn) [%] | receptor occupancy at 30 mg/kg (HCRTR2; RSC) [%] | receptor occupancy at 30 mg/kg (HCRTR2; TMN) [%]
1 | Cc1nc2ccc(NC(=O)Nc3ccnc4cccnc34)cc2o1.Cl [SB-334867, 1-(2-methylbenzoxazol-6-yl)-3-[1], [5]naphthyridin-4-yl-urea hydrochloride] | < 40 |  |  |  |  |  |  |  | 
2 | CNC(=O)[C@@H](c1ccccc1)N1CCc2cc(OC)c(OC)cc2[C@@H]1CCc1ccc(C(F)(F)F)cc1 [almorexant, (2R)-2-[(1S)-6,7-Dimethoxy-1-[2-(4-trifluoromethyl-phenyl)-ethyl]-3,4-dihydro-1H-isoquinolin-2-yl]-N-methyl-2-phenyl-acetamide] |  | 7.1 ± 0.7 | ~100 | 58.4 ± 11.5 | 66.1 ± 11.6 | 57.7 ± 10.5 | 67.2 ± 13.9 | 64.6 ± 10.7 | 49.2 ± 13.2

Source: paper PMC3388080 (PLoS ONE, 2012)
